Bridge positions count the residues as written; N and C are the ends. Square brackets hold non-standard residues; d marks the D form. Peptide text beside a SMILES is read from it. Pen = CC(C)(S)[C@H](N)C(=O)O; Orn = NCCC[C@H](N)C(=O)O
What was measured:
[1] = biological target: T1, endogeneous urotensin II receptor (UT receptor) in 6D9 cells (Homo sapiens, UniProt Q9UKP6); assay: Calcium mobilization assay (FLIPR, Calcium 3 dye) in 6D9 cells; type: cell-based; conditions: 10 nM or 30 nM U-II (FIG. 6)
T1 construct: endogenous in cells; host or cells: 6D9 (ATCC PTA-7749), sub-clone of human rhabdomyosarcoma line SJRH30 (ATCC CRL-2061)
T1 sequence (Q9UKP6 1-389): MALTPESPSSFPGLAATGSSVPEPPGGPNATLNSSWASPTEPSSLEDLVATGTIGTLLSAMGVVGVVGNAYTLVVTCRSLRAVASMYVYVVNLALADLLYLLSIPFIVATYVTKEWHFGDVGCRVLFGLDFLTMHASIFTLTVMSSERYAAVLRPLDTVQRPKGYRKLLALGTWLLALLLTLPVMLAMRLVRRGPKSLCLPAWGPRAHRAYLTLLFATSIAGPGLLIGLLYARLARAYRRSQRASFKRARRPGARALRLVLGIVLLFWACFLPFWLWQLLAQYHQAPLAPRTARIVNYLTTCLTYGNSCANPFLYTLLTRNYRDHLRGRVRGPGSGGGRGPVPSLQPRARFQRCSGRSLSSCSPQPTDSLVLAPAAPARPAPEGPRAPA
Procedure: Calcium mobilization was performed using FLIPR and Calcium 3, a non-wash Ca^2+ dye. Unlike the conventional Ca^2+ dye such as Fluo-3, Fluo-4, and Fura-2/AM, etc., the non-wash Ca^2+ dye was formulated to incorporate extracellular fluorescence quenchers and avoid the need to wash away extracellular Ca^2+ dye after loading the cells with the dye (Monteith and Bird, 2005, supra).
Cells were plated into 96 or 384 well plates and were incubated at 37° C. After the incubation, the growth medium was removed and replaced with HBSS (Hanks Balanced salt solution #21-023-CV, Mediatech, Inc, Herndon, Va.) containing Calcium 3 dye with probenecid.
In addition, the cells survived in cultures for over 3 months (17 passages) and were still responsive to U-II (FIG. 4).

[2] = biological target: T1, endogeneous urotensin II receptor (UT receptor) in 6D9 cells; assay: 384-well FLIPR high throughput calcium mobilization assay in 6D9 cells; type: cell-based; conditions: 384-format
Procedure: Calcium mobilization was performed using FLIPR and Calcium 3, a non-wash Ca^2+ dye. Unlike the conventional Ca^2+ dye such as Fluo-3, Fluo-4, and Fura-2/AM, etc., the non-wash Ca^2+ dye was formulated to incorporate extracellular fluorescence quenchers and avoid the need to wash away extracellular Ca^2+ dye after loading the cells with the dye (Monteith and Bird, 2005, supra). Cells were plated into 96 or 384 well plates and were incubated at 37° C. After the incubation, the growth medium was removed and replaced with HBSS (Hanks Balanced salt solution #21-023-CV, Mediatech, Inc, Herndon, Va.) containing Calcium 3 dye with probenecid. […] This Example teaches a high throughput approach using FLIPR on a 384-well format. […] Various factors of the FLIPR assay had been tested to minimize the measure variability.

Dose dependence of response in HTS calcium mobilization assay [2]	SMILES	Block of calcium mobilization coupled to U-II stimulation [1]
dose dependent responses	CC(C)[C@H](NC(=O)[C@@H]1CSSC(C)(C)[C@H](NC(=O)[C@@H](N)CC(=O)O)C(=O)N[C@@H](Cc2ccccc2)C(=O)N[C@H](Cc2c[nH]c3ccccc23)C(=O)N[C@@H](CCCN)C(=O)N[C@@H](Cc2ccc(O)cc2)C(=O)N1)C(=O)O [Urantide] (H-D[Pen]F[dW][Orn]YCV-OH; disulfide 2-7)	blocked the calcium mobilization coupled to U-II stimulation
dose dependent responses	CC(C)[C@H](NC(=O)[C@@H]1CSSC[C@H](NC(=O)[C@H](CC(=O)O)NC(=O)[C@@H]2CCCN2C(=O)[C@@H](NC(=O)[C@@H](N)CCC(=O)O)[C@@H](C)O)C(=O)N[C@@H](Cc2ccccc2)C(=O)N[C@@H](Cc2c[nH]c3ccccc23)C(=O)N[C@@H](CCCCN)C(=O)N[C@@H](Cc2ccc(O)cc2)C(=O)N1)C(=O)O [hU-II, SEQ ID NO: 2, ETPDCFWKYCV]	
